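Growth conditions: 96-well plates. Treatment: test compound, 48 hours, 5 concentrations. Analysis: linear interpolation between bracketing concentrations; unreached endpoints set to highest concentration. At the TGI there is no net growth.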
Columns and labels:
Test in all cases: growth of human tumour cells (NCI), 48 h
[1] = tested on: CCRF-CEM leukemia
[2] = tested on: COLO 205 colon
[3] = tested on: EKVX NSCLC
[4] = tested on: HCT-116 colon
[5] = tested on: IGROV1 ovarian
[6] = tested on: K-562 leukemia
[7] = tested on: KM12 colon
[8] = tested on: M14 melanoma
[9] = tested on: MALME-3M melanoma
[10] = tested on: MDA-MB-231 breast
[11] = tested on: NCI-H226 lung
[12] = tested on: RPMI-8226 leukemia
[13] = tested on: RXF 393 renal
[14] = tested on: SNB-75 CNS
[15] = tested on: T-47D breast

Row | SMILES | TGI [1] [µM] | TGI [2] [µM] | TGI [3] [µM] | TGI [4] [µM] | TGI [5] [µM] | TGI [6] [µM] | TGI [7] [µM] | TGI [8] [µM] | TGI [9] [µM] | TGI [10] [µM] | TGI [11] [µM] | TGI [12] [µM] | TGI [13] [µM] | TGI [14] [µM] | TGI [15] [µM]
1 | O=C(O)c1cccc(S(=O)(=O)NN2C(=O)CSC2c2ccccc2Cl)c1 (stereo not given) | > 100 | > 100 | > 100 | > 100 | > 100 | > 100 | > 100 | > 100 | > 100 | > 100 | > 100 | > 100 | > 100 | > 100 | > 100
2 | Cc1ccccc1C(=O)NC(O)(C(F)(F)F)C(F)(F)F | > 100 | > 100 | > 100 | > 100 | > 100 | > 100 | > 100 | > 100 | > 100 | > 100 | > 100 | > 100 | > 100 | 3.17 | > 100
3 | S=C1NCCN1C(=S)NC1CCCCC1 | > 100 | 59.2 | > 100 | > 100 | > 100 | > 100 | 65.3 | 51.2 | 64.9 | > 100 | 75.2 | > 100 | 28.6 | 72.1 | > 100
4 | Clc1cc2nnn(C3CCCCO3)c2cc1Cl (stereo not given) | > 100 | > 100 | 79.4 | > 100 | > 100 | > 100 | > 100 | > 100 | > 100 | > 100 | > 100 | > 100 | > 100 | > 100 | > 100
5 | CCCC1=NC(C(F)(F)F)(C(F)(F)F)N=C(N2CCOCC2)O1 | > 100 | > 100 | > 100 | > 100 | > 100 | > 100 | > 100 | > 100 | > 100 | > 100 | > 100 | > 100 | > 100 | > 100 | > 100
6 | COC(=O)CCN1CCN(CCO)CC1C (stereo not given) | > 10 | > 10 | > 10 | > 10 | > 10 | > 10 | > 10 | > 10 | > 10 | > 10 | > 10 | > 10 | > 10 | > 10 | > 10
7 | COC(=O)c1ccc(-n2c(C)nc(=O)c(-c3ccccc3)c2C)cc1 | > 100 | > 100 | > 100 | > 100 | > 100 | > 100 | > 100 | > 100 | > 100 | > 100 | > 100 | > 100 | > 100 | > 100 | > 100
8 | CC(C)CNC(=O)c1c(NC(=O)c2ccccc2)sc2[nH]c(=O)n(-c3ccccc3)c(=O)c12 | > 89.6 | > 100 | > 100 | > 100 | > 100 | > 86.9 | > 100 | > 100 | > 100 | 52.6 | > 100 | > 100 | 40 | 48.3 | > 100
9 | CSc1ncc2c(C#N)c3ccccn3c(=O)c2n1 | > 100 | > 100 | > 100 | > 100 | > 100 | > 100 | > 100 | > 100 | > 100 | > 100 | > 100 | > 100 | > 100 | > 100 | > 100
10 | CCSC1=C(C#N)C2(CCCCC2)C2=C(CC(C)(C)CC2=O)N1 | > 100 | > 100 | 68.4 | > 100 | > 100 | > 100 | > 100 | > 100 | 78.2 | > 100 | > 100 | > 100 | > 100 | 71.1 | > 100
11 | Cc1cc(CN(Cc2ccccc2)Cc2nc3ccccc3[nH]2)c(O)c(CN(Cc2nc3ccccc3[nH]2)Cc2nc3ccccc3[nH]2)c1 | > 21.8 | > 55.1 | 99.1 | 23.1 | > 93.2 | > 26.3 | 30.5 | 26.6 | > 93.2 | > 71.4 | > 50.9 | 38.4 | 64.1 | > 72.3 | > 69.5
12 | O=C1CCCC(=O)N1n1c(Cc2ccc(Cl)cc2)n[nH]c1=O | > 100 | > 100 | > 100 | > 100 | > 100 | > 100 | > 100 | > 100 | > 100 | > 100 | > 100 | > 100 | > 100 | > 100 | > 100
13 | COc1ccc(/C=N/NS(=O)(=O)c2ccc(/C=C3\NC(=O)N(C)C3=O)cc2)cc1 | > 100 | > 100 | > 100 | > 100 | > 100 | > 100 | > 100 | > 100 | > 100 | > 100 | > 100 | > 100 | > 100 | > 100 | > 100
14 | C[C@]12CC[C@H]3[C@@H](CC=C4C[C@@H](O)CC[C@@]43C)[C@@H]1C[C@H](N1CCOCC1)[C@@H]2O | > 100 | > 100 | > 100 | > 100 | > 100 | > 100 | > 100 | > 100 | > 100 | > 100 | > 100 | > 100 | > 100 | 97.4 | > 100
15 | COC(=N)c1ncn(Cc2ccccc2)c1N | > 100 | > 100 | > 100 | > 100 | > 100 | > 100 | > 100 | > 100 | > 100 | > 100 | > 100 | > 100 | > 100 | > 100 | > 100
16 | N=c1oc2ccc([N+](=O)[O-])cc2cc1C(=O)Nc1ccccn1 | > 100 | > 100 | > 100 | > 100 | > 100 | > 100 | > 100 | > 100 | 77.6 | 59.9 | > 100 | > 100 | > 100 | > 100 | > 100
17 | CN(C)C=NCc1ccc2c(c1)OCO2 | > 100 | > 100 | > 100 | > 100 | > 100 | > 100 | > 100 | > 100 | > 100 | > 100 | > 100 | > 100 | > 100 | > 100 | > 100
18 | CC(=O)c1c2c(cc3c1CC1(C3)Cc3ccc4c(c3C1=O)CCC4)CCC2 (stereo not given) | > 100 | 39.3 | 96 | > 100 | > 100 | > 100 | > 100 | > 100 | > 100 | > 100 | > 100 | > 100 | > 100 | > 100 | > 100
19 | CC(=O)OCC1=C2C(OC(=O)C(C)C)CC3(COC(C)=O)OC3/C=C\C3(C)OC3C2OC1=O (stereo not given) | > 100 | > 100 | > 100 | > 100 | > 100 | > 100 | > 100 | > 100 | > 100 | > 100 | > 100 | > 100 | > 100 | > 100 | > 100
20 | O=C(Nc1sccc1S(=O)(=O)c1ccc(Cl)cc1)c1ccc(Cl)cc1Cl | > 100 | > 100 | > 100 | > 100 | > 100 | > 100 | > 100 | > 100 | > 100 | > 100 | > 100 | > 100 | > 100 | > 100 | > 100

Source: PubChem BioAssay (NCI)
